From patent US11660287B2, “Agent for preventing or treating spinocerebellar ataxia” (FUJIFILM Toyama Chemical Co., Ltd., priority 2017, dated 2023)

Tested on: Mild to Moderate AD Patients
Experiment: Phase II placebo-controlled trial: change in brain volume by volumetric MRI (vMRI) at week 52
Format: in vivo, human
Conditions: for Change in hippocampus volume, least square means (standard error) / Change in whole brain volume, least square means (standard error): mixed-effect model
Description: Test Example 1 Multicenter Randomized Double-Blind Phase II Placebo-Controlled Trial for Assessing Effectiveness and Safety of Compound A in Mild to Moderate AD Patients
Subject (selection criteria): Patients were screened in a period from 42 days before treatment assignment to the assignment based on the following selection criteria.
• Patients who were probable AD and are 55 years old or older and 85 years old or younger at the time of obtaining consent of screening. • Patients with an MMSE score of 12 to 22 at the time of screening • Patients with a Modified Hachinski Ischemia Scale score of 4 or less • Patients who have been treated with a donepezil hydrochloride or rivastigmine transdermal system for at least 4 months before the baseline and with a stable dose thereof for 3 months before the baseline. • In the case of patients who have received memantine in addition to being treated with a donepezil hydrochloride or rivastigmine transdermal system, patients who have been treated with memantine for at least 4 months before the baseline and with a stable dose thereof for 3 months before the baseline. • Patients whose brain MRI or CT results match AD at the time of screening Organization of groups: Patients matched (484 patients) were randomly divided into the following 3 groups and the trial was started. (1) High dose group: 224 mg of a test compound (160 mg in terms of Compound A) was orally administered once a day for 4 weeks and then 448 mg of a test compound (320 mg in terms of Compound A) was orally administered once a day for 48 weeks (158 patients) (2) Low dose group: 224 mg of a test compound (160 mg in terms of Compound A) was orally administered once a day for 52 weeks (166 patients) (3) Placebo group: placebo was orally administered once a day for 52 weeks (158 patients) Method of Assessment: Volumetric MRI
Brain volume of subjects was measured by vMRI scan at the screening and after 52 weeks, and the volume change of the whole brain and the hippocampus of the subjects were quantified to assess brain atrophy based on the change from the screening.
Furthermore, volume change of the whole brain and 101 areas (obtained by dividing the areas existing in both the left brain and the right brain of the Brodmann areas (1 to 52) into 101 areas) in each subject was quantified to assess brain atrophy based on the change from the screening.
Changes in the volume of the whole brain and the hippocampus after 52 weeks from the baseline were compared between the high dose group and the placebo group, and between the low dose group and the placebo group based on Mixed-effect Models. For models, the treatment groups were included as a fixed effect, age, baseline of the respective brain volumes (the whole brain or the hippocampus), baseline of MMSE and ApoE4 genotype (positive/negative) were included as covariates, and trial sites were included as a random effect.
Furthermore, changes in the respective volumes of the whole brain and the 101 areas after 52 weeks from the baseline were compared between the high dose group and the placebo group, and between the low dose group and the placebo group.

[1] = High dose group (160 mg for 4 weeks, then 320 mg in terms of Compound A, oral once a day, for 48 weeks), week 52 vs baseline, vMRI
[2] = Low dose group (160 mg in terms of Compound A, oral once a day, 52 weeks), week 52 vs baseline, vMRI

OC1CN(CCCOCCc2ccc3sccc3c2)C1 [Compound A, 1-(3-(2-(1-benzothiophen-5-yl)ethoxy)propyl)azetidin-3-ol]
Change in the volume of the whole brain and the hippocampus compared with placebo group (in words) (Compound A group vs placebo group, week 52 from baseline): volume reduction tended to be smaller | Volume reduction of the cerebellum compared to the placebo group (in words) (Compound A high dose group): same tendency as in the low dose group was observed | Difference in effects on the change in hippocampal volume vs placebo group (in words) (Compound A low dose group vs placebo group, week 52): statistically significant | Volume reduction of the cerebellum compared to the placebo group (in words) (Compound A low dose group, whole brain and 101 areas, Nos. 1, 2, 4 and 8 in Table 2): particularly tended to be suppressed | Change in hippocampus volume, least square means (standard error) [1]: −0.31(0.057) mL | Change in whole brain volume, least square means (standard error) [1]: −20.05(3.821) mL | Change in hippocampus volume, difference from placebo group (95% confidence interval) (High dose group, week 52 vs baseline, p-value 0.0996): 0.08(−0.02, 0.18) mL | Change in whole brain volume, difference from placebo group (95% confidence interval) (High dose group, week 52 vs baseline, p-value 0.2581): 3.94(−2.91, 10.79) mL | Change in hippocampus volume, least square means (standard error) [2]: −0.27(0.053) mL | Change in whole brain volume, least square means (standard error) [2]: −21.37(3.582) mL | Change in hippocampus volume, difference from placebo group (95% confidence interval) (Low dose group, week 52 vs baseline, p-value 0.0106): 0.12(0.03, 0.22) mL | Change in whole brain volume, difference from placebo group (95% confidence interval) (Low dose group, week 52 vs baseline, p-value 0.4456): 2.63(−4.15, 9.40) mL | Change in brain volume, mean value: ctx-lh-parsorbitalis (Low dose group, week 52 vs baseline, vMRI, placebo −0.5499, p 0.0323): 0.1244 | Change in brain volume, mean value: Left-Cerebellum-Cortex (Low dose group, week 52 vs baseline, vMRI, placebo −0.6899, p 0.0005): −0.2695 | Change in brain volume, mean value: Right-Cerebellum-Cortex (Low dose group, week 52 vs baseline, vMRI, placebo −0.7248, p 0.0090): −0.3209 | Change in brain volume, mean value: Right-Cerebral-White-Matte (Low dose group, week 52 vs baseline, vMRI, placebo −1.4416, p 0.0157): −1.0753 | Change in brain volume, mean value: ctx-rh-lateral orbitofrontal (Low dose group, week 52 vs baseline, vMRI, placebo −1.5322, p 0.0146): −0.8995 | Change in brain volume, mean value: Left-Cerebral-White-Matter (Low dose group, week 52 vs baseline, vMRI, placebo −1.5679, p 0.0215): −1.2418 | Change in brain volume, mean value: Whole_brain (Low dose group, week 52 vs baseline, vMRI, placebo −1.5952, p 0.0054): −1.3142 | Change in brain volume, mean value: Right-Cerebellum-White-Matter (Low dose group, week 52 vs baseline, vMRI, placebo −1.6919, p 0.0014): −0.89 | Change in brain volume, mean value: Left-Cerebellum-White-Matter (Low dose group, week 52 vs baseline, vMRI, placebo −2.0490, p 0.0001): −0.9201 | Change in brain volume, mean value: ctx-lh-insula (Low dose group, week 52 vs baseline, vMRI, placebo −2.6470, p 0.0030): −1.9609 | Change in brain volume, mean value: ctx-rh-insula (Low dose group, week 52 vs baseline, vMRI, placebo −2.6510, p 0.0056): −1.9976 | Change in brain volume, mean value: ctx-rh-superior temporal (Low dose group, week 52 vs baseline, vMRI, placebo −2.9861, p 0.0013): −2.1332 | Change in brain volume, mean value: Left-Hippocampus (Low dose group, week 52 vs baseline, vMRI, placebo −3.0880, p 0.0232): −2.3402 | Change in brain volume, mean value: ctx-rh-inferior temporal (Low dose group, week 52 vs baseline, vMRI, placebo −3.2601, p 0.0124): −2.6157 | Change in brain volume, mean value: ctx-lh-entorhinal (Low dose group, week 52 vs baseline, vMRI, placebo −3.8173, p 0.0195): −2.97
